The source made the active and inactive calls.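 How the source made its calls: active means compounds giving half or more protection of infected cells from virus-caused growth loss, again on retest; inactive means the rest.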 Where a SMILES comes first, the peptide text is derived from it. The star is where a group is joined. Boc = CC(C)(C)OC(=O)*

The assay relates to CEM cells HIV-1 protection, formazan growth assay. In words: NCI AIDS Antiviral Assay. The conditions noted are these: for IC50: measured here: growth of uninfected CEM cells. A digest of the protocol:
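Screen of anti-HIV-1 activity in human CEM cells using a formazan-based growth measurement at five drug concentrations. Hits with 50% or greater protection were repeated, and confirmation required reproducible complete protection.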

With `Nc1c(N=Nc2ccc(CCc3ccc(N=Nc4cc(S(=O)(=O)O)c5cccc(S(=O)(=O)O)c5c4N)cc3S(=O)(=O)O)c(S(=O)(=O)O)c2)cc(S(=O)(=O)O)c2cccc(S(=O)(=O)O)c12`, the EC50 (in general, the concentration at which the effect is half-maximal) was 6.31 µM and the IC50 (as a rule, the concentration that gives 50% inhibition) came out at 148 µM.
The corresponding values for `CC(=O)O[C@H]1C#C/C=C\C#CC[C@@H]2C(=O)N[C@@H]12` are greater than 20 µM and 1.02 µM.
With `CCC1(CC)C(=O)N(C(=O)c2ccc(C)cc2)N(C(=O)c2ccc(C)cc2)C1=O`, the EC50 was greater than 200 µM and the 50% inhibitory concentration (IC50) was 20.4 µM.
Taken in the same sequence, the figures for `CON(C)C(=O)C(Cc1ccccc1)NC(=O)OCc1ccccc1` (stereo not drawn) were greater than 200 µM and 182 µM.
For `COc1cc(C2C(Cl)C(=O)N2NC(=O)c2ccccc2O)ccc1O` (stereo not drawn), the EC50 was greater than 27.5 µM and the IC50 was greater than 27.5 µM.
As to `COc1cc2c[n+](C)c3c4cc5c(cc4ccc3c2cc1OC)OCO5`, the EC50 was greater than 17.8 µM and the half-maximal inhibitory concentration (IC50) was found to be 0.437 µM.
As for `O=c1/c(=C\c2ccccc2Cl)sc2n1CCN=2`, the result was inactive.
As to `CCc1ccccc1-n1c2nc(=O)n(C)c(=O)c-2nc2ccccc21`, the outcome was inactive.
Take `CC(C)Oc1cc2c(c3oc(=O)cc(-c4ccccc4)c13)C(=O)[C@H](C)[C@@H](C)O2`: the EC50 is greater than 200 µM and the IC50 stood at 51.3 µM.
Consider `COC(=O)C1C(=O)C(C(=O)OC)C23C(C)CCC12C(C(=O)OC)C(=O)C3C(=O)OC` (stereo not drawn), for which the EC50 was greater than 46.8 µM and the IC50 was greater than 46.8 µM.
In the case of `COc1ccc(-n2c(SC(CN3CCOCC3)CN3CCCC3=O)nc3ccccc3c2=O)cc1` (stereo not drawn), the EC50 was greater than 200 µM and the concentration for half-maximal inhibition (IC50) was 56.2 µM.
The corresponding values for `CCc1c2c(c(C)n1C)C(c1ccccc1)=NCC(=O)N2` are greater than 468 µM and 295 µM.
As for `COc1ccc(C2SC(C)C(=O)N2c2nc(-c3nc(-c4ccc(Cl)cc4)cs3)cs2)cc1` (stereo not drawn), the EC50 was greater than 200 µM and the IC50 is greater than 100 µM.
In the case of `CN(C)c1ccc(N=O)c(O)c1`, the EC50 was greater than 200 µM and the IC50 is 8.71 µM.
In the case of `CSC(=S)N(C)NC(=O)c1cccc(C(=O)NN(C)C(=S)SC)n1`, the EC50 was greater than 200 µM and the IC50 is greater than 200 µM.
Regarding `C[N+](C)(C)CC(=O)N/N=C/c1oc(-c2c(O)ccc3ccccc23)c(-c2c(O)ccc3ccccc23)c1[N+](=O)[O-]`, the EC50 was greater than 45.7 µM and the IC50 came out at 24.5 µM.
With `CCCN(C)C(=O)COc1cc2c(O)c3c(O)c(C)c4c(c13)C(=O)C(C)(O/C=C/C(OC)C(C)C(OC(C)=O)C(C)C(O)C(C)C(O)C(C)/C=C/C=C(\C)C(=O)N2)O4` (stereo not drawn), the EC50 is greater than 200 µM and the IC50 is 18.6 µM.
Taken in the same sequence, the figures for `O=P(O)(CN1CCN(CP(=O)(O)c2ccccc2)CCN(CP(=O)(O)c2ccccc2)CC1)c1ccccc1` were greater than 200 µM and 4.07 µM.
With `CCCc1onc(CCC(=O)N(Cc2ccccc2)Cc2ccccc2)c1CC`, the outcome was inactive.
`CCOC(=O)C(=CNC(=S)Nc1c(CC)cccc1C(C)(C)C)C(=O)OCC`: the EC50 was greater than 200 µM and the IC50 is greater than 200 µM.
`O=[N+]([O-])c1cccc2c([As](=O)(O)O)cccc12`: the EC50 was greater than 200 µM and the concentration for half-maximal inhibition (IC50) came out at 91.2 µM.
With `NC(=O)c1c(Cl)nc2n1CCS2`, the EC50 was greater than 200 µM and the IC50 was greater than 200 µM.
Consider `COc1ccc2c(ccc3[nH]c4c(C)cnc(NCCCN)c4c32)c1`, for which the EC50 is greater than 2 µM and the half-inhibitory concentration (IC50) worked out at 0.219 µM.
The corresponding values for `COc1cccc(C(O)C(CN2CCCCC2)CN2CCCCC2)c1` (stereo not drawn) are greater than 200 µM and greater than 100 µM.
The corresponding values for `O=S1(=O)COc2ccccc2-c2ncncc21` are 47.9 µM and greater than 200 µM.
The corresponding values for `O=C(/C=C/c1ccc[nH]1)c1ccccc1` are greater than 347 µM and 120 µM.
With `CCc1ccc2nccc(NCCCN(C)C)c2c1[N+](=O)[O-]`, the EC50 is greater than 200 µM and the IC50 stood at 87.1 µM.
`COC(=O)C1=COC(OC2OC(CO)C(O)C(O)C2O)C2C1C=C[C@@]21C=C([C@@H](C)OC(=O)/C=C/c2ccc(O)cc2)C(=O)O1` (stereo partly drawn): the EC50 is greater than 295 µM and the IC50 was 158 µM.
Taken in the same sequence, the figures for `COP(=O)(CC(=O)C1OC(C)(C)OC1C(O)COCc1ccccc1)OC` (stereo not drawn) were greater than 324 µM and greater than 324 µM.
For `N#Cc1c(-c2ccc(Cl)c(Cl)c2)c(-c2ccc(Cl)c(Cl)c2)nn(CC(=O)O)c1=O`, the EC50 was greater than 200 µM and the IC50 stood at 55 µM.
Regarding `CC1CCC2(NC1)OC1CC3[C@@H]4CC=C5C=CCC[C@]5(C)C4CC[C@]3(C)C1C2C` (stereo partly drawn), the EC50 was greater than 9.55 µM and the IC50 was greater than 9.55 µM.
For the compound `O=C(Nc1ccccc1)OCc1nc2c([nH]1)C(=O)C=CC2=O`, the outcome was inactive.
With `C=C(C)CCC[C@@H](C)C1CCC2(C)[C@@H]3CCC4C(C)(C)[C@@H](O)CC[C@@]45C[C@@]35CC[C@]12C` (stereo partly drawn), the EC50 was greater than 200 µM and the IC50 was 46.8 µM.
As to `COc1ccc(NC(=O)CC2SC(=Nc3ccccc3C)NC2=O)c([N+](=O)[O-])c1` (stereo not drawn), the outcome was inactive.
`N/C(=N\N=C\c1ccc2c(c1)OCO2)N/N=C\c1ccc2c(c1)OCO2`: the EC50 was greater than 200 µM.
In the case of `CCCCCC(/C=C/[C@@H]1[C@H]2CC(=O)O[C@H]2C[C@H]1N1CCOCC1)OC1CCCO1` (stereo partly drawn), the EC50 was greater than 316 µM and the half-maximal inhibitory concentration (IC50) was greater than 316 µM.
In the case of `CCc1cc2c(=O)[nH]c(-c3cccnc3)nc2s1`, the EC50 is greater than 200 µM and the IC50 is greater than 200 µM.
For the compound `COc1cc2c(cc1OC)C(=O)/C(=C/c1ccc(Cl)cc1)CC2`, the EC50 was greater than 200 µM and the IC50 is greater than 200 µM.
Turning to `COc1ccc(O[C@H](CO)C[C@@H]2COC(C)(C)O2)cc1`, the EC50 is greater than 200 µM and the half-inhibitory concentration (IC50) was greater than 200 µM.
`C=CP(CCP(CCP(C=C)N(CC)CC)c1ccccc1)N(CC)CC` (stereo not drawn): the EC50 is greater than 6.46 µM and the IC50 is greater than 6.46 µM.
As for `CCCC1(N2C(=O)c3ccc4c5c(ccc(c35)C2=O)N(C2(CCC)CCCCC2)C4=O)CCCCC1`, the EC50 was greater than 100 µM and the IC50 is greater than 100 µM.
Take `O=C1C=CC(=O)C2C1C1CC3C=CC312` (stereo not drawn): the EC50 was greater than 1350 µM and the IC50 is greater than 1350 µM.
For the compound `CCOP(=O)(O)C1C(CO)OC(n2ccc(=O)[nH]c2=O)C1O` (stereo not drawn), the EC50 was greater than 200 µM and the IC50 was greater than 200 µM.
`COc1cc2noc(-c3ccccc3)c2cc1OC`: the outcome was inactive.
For `CC1C=C[C@H](Sc2ccccc2)CC[C@@]1(C)O` (stereo partly drawn), the EC50 was greater than 251 µM and the IC50 worked out at 22.4 µM.
Take `C=C(CCC(Cl)C(COC)OC(CCC)OCC)[Si](C)(C)C` (stereo not drawn): the EC50 is greater than 38.9 µM and the IC50 is greater than 38.9 µM.
In the case of `CC(C)(C)C(=O)/C=C/c1ccccc1F`, the EC50 is greater than 49 µM and the IC50 was greater than 49 µM.
Regarding `Cc1ccc(S(=O)(=O)Nn2c(S)c(C#N)c(-c3ccc(Cl)cc3)c(C#N)c2=O)cc1`, the EC50 is greater than 200 µM and the IC50 was determined as 12 µM.
For the compound `CCC(C)c1c(NC(C)=O)o[nH]c1=O` (stereo not drawn), the EC50 was greater than 200 µM and the IC50 was greater than 200 µM.
As to `OCc1cc[te]c1`, the outcome was inactive.
For the compound `Nc1nn2cc3c(nc2c1N=Nc1ccccc1)-c1ccccc1C3`, the EC50 is greater than 200 µM and the IC50 was greater than 200 µM.
Turning to `CCn1c(=O)c2c3ccc(O)cc3oc2c2ccc(O)cc21`, the EC50 is greater than 200 µM and the IC50 was determined as 89.1 µM.
Taken in the same sequence, the figures for `Cc1cc(Br)cc(C)c1NC(=O)C(=O)Nn1c(=S)[nH]c2ccccc2c1=O` were greater than 209 µM and greater than 209 µM.
Take `N#Cc1nc(/C=C/c2cccs2)oc1N`: the EC50 is greater than 200 µM and the 50% inhibitory concentration (IC50) came out at 107 µM.
As for `Cc1cn([C@H]2CN(O)C[C@@H](CO)O2)c(=O)[nH]c1=O`, the EC50 is greater than 200 µM and the IC50 is greater than 200 µM.
For the compound `CC(=O)O[C@H]1C=CC23OC(=O)[C@]1(C)[C@H]2[C@H](C(=O)O)C12CC(=O)[C@@](CO)(CC[C@H]13)C2`, the outcome was inactive.
`c1ccc2c(c1)n1nnnc1c1nnnn21`: the EC50 is greater than 33.9 µM and the IC50 was greater than 33.9 µM.
For `Cc1cccc(NC(=S)Nc2ccccc2Cl)n1`, the EC50 was 141 µM and the concentration for half-maximal inhibition (IC50) was greater than 200 µM.
Consider `CCOc1ccccc1NC(=O)C(=O)CC(=O)C1=C(C)Nc2ccccc2S1`, for which the EC50 is greater than 117 µM and the IC50 was greater than 117 µM.
On to `C[C@]12Cc3conc3C(O)=C1CC[C@@H]1C2CC[C@@]2(C)C1CC[C@@H]2O` (stereo partly drawn), for which the EC50 was greater than 204 µM and the IC50 stood at 25.7 µM.
The corresponding values for `CC(=O)NC(C)(C)C1CC=C(C)CC1` (stereo not drawn) are greater than 200 µM and greater than 200 µM.
Taken in the same sequence, the figures for `Oc1ccccc1C=Nc1ccc(Oc2ccc(Cl)cc2)c(Cl)c1` were greater than 200 µM and 13.2 µM.
On to `Nc1nc(Cl)cc(Nc2ccc3c(c2)CCC3)n1`, for which the EC50 was greater than 200 µM and the IC50 is 22.4 µM.
Consider `C=C1c2c(C)coc2C(=O)c2c(O)cc(OC)c(C)c21`, for which the result was inactive.
Same read-out and setting: in the case of `OC[C@H]1NC[C@@H](O)[C@@H](O)[C@H]1O` it was “inactive”.
For `CSCCC(NC(=O)C(CC(C)C)NC(=O)CNC(=O)OC(C)(C)C)C(=O)N(C)C` (stereo not drawn) (Boc-Gly-Leu-Met-NMe2; configuration not given here), the EC50 is greater than 200 µM and the IC50 was greater than 200 µM.
As to `CCCCCCCCCCCCCCCCNC(=O)/C(=C\c1ccccc1O)NC(=O)c1ccccc1`, the EC50 was greater than 200 µM and the IC50 is greater than 200 µM.
Regarding `CC(CCc1nc2ccccc2[nH]1)C1CCC2C3CC[C@@H]4C[C@H](O)CC[C@]4(C)C3CC[C@]12C` (stereo partly drawn), the EC50 was greater than 50.1 µM and the IC50 was greater than 50.1 µM.
In the case of `COC(=O)/N=c1\cc(N2CC=CCC2)nc(N)n1O`, the EC50 was greater than 200 µM and the IC50 is greater than 200 µM.
In the case of `CNS(=O)(=O)NN(C)S(=O)(=O)c1ccc(OC)cc1`, the EC50 was greater than 407 µM and the IC50 worked out at 105 µM.
Taken in the same sequence, the figures for `OC1(O)/C=C\CCCCC/C=C\1` were greater than 200 µM and 129 µM.
Taken in the same sequence, the figures for `OCC1C(O)C(O)[C@@H]2SCCN12` (stereo partly drawn) were greater than 200 µM and greater than 200 µM.
